Measurements as given in patent US6869957B1, “Non-peptide tachykinin receptor antagonists” (Eli Lilly and Company, priority 1993, dated 2005).

How the values were obtained:
[1] = molecular target: T1, NK-1 receptor (Homo sapiens, UniProt P25103); assay: NK-1 Receptor Binding Assay (125I-labeled substance P, IM9 cells); conditions: for IC50: inhibits fifty percent of binding of 125I-substance P to IM9 cells
T1 construct: endogenous in cells; host or cells: IM9 cells (human cell line), whole cells
T1 sequence (P25103 whole entry): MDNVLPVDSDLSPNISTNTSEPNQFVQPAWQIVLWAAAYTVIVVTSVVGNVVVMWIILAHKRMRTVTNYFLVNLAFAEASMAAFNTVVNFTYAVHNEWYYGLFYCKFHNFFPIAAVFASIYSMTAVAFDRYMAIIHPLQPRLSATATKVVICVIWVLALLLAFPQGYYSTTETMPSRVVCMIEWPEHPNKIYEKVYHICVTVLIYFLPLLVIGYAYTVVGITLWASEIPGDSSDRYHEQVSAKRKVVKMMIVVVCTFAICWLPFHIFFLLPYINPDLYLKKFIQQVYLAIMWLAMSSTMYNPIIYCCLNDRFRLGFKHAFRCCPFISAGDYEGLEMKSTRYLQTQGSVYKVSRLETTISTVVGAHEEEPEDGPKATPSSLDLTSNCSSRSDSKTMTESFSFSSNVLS
Procedure, shortened: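 Radioligand binding on human IM9 cells, ended by filtration over glass fiber filters presoaked in 0.1% polyethylenimine. Specific binding of labeled substance P defined with 20 nM unlabeled ligand.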

[2] = molecular target: T2, human NK-2 receptor (Homo sapiens, UniProt P21452); assay: NK-2 Receptor Binding Assay ([125I]iodohistidyl-neurokinin A, CHO-hNK-2R membranes); conditions: for IC50: inhibits fifty percent of binding of [125I]iodohistidyl-neurokinin A to CHO-hNK-2R membranes; for NK-2 percent inhibition of binding: @ 10 μM
T2 construct: expressed in transfected cells; host or cells: CHO-hNK-2R cells (CHO-derived), membrane preparation
T2 sequence (P21452 1-398): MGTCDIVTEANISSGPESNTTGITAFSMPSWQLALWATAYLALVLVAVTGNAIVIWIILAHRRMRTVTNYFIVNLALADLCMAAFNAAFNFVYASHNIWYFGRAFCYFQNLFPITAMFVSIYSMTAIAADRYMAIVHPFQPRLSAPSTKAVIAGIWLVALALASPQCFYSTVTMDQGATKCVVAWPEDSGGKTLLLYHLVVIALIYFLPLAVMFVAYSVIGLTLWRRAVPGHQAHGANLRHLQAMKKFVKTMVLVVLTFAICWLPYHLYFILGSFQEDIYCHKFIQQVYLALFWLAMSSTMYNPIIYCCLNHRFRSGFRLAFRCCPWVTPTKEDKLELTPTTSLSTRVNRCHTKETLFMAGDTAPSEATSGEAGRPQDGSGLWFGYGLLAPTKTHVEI
Procedure, shortened: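 Membranes from CHO cells stably expressing human NK-2 receptor (~400,000/cell), 40 μg protein per sample, in 50 mM Tris pH 7.4 with 3 mM MnCl2, 0.02% BSA, 4 μg/ml chymostatin. Displacement of 20 pM [125I]iodohistidyl-neurokinin A, 1 hr at room temperature; GF/B filtration, gamma counting. Non-specific binding defined with 1 μM eledoisin.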

Row | SMILES | IC50 [2] [µM] | NK-1 percent inhibition of binding ([1]; @ 5 μM) | NK-2 percent inhibition of binding [2] | other results
1 | CC(C)(C)OC(=O)NCC(Cc1c[nH]c2ccccc12)NC(=O)CN1CCN(c2ccccc2)CC1 (stereo not shown) [Example 151, 1-t-butoxycarbonylamino-3-(1H-indol-3-yl)-2-[N-(2-((4-phenyl)piperazin-1-yl)acetyl)amino]propane] | 1.7 | – | – | IC50 [1]: 1400 nM
2 | O=C(CN1CCN(c2ccccc2)CC1)NC(CNC(=O)c1ccccc1)Cc1c[nH]c2ccccc12 (stereo not shown) [Example 152] | 2 | – | – | IC50 [1]: 1200 nM
3 | O=C(CN1CCN(c2ccccc2)CC1)NC(CNCC1CCCCC1)Cc1c[nH]c2ccccc12 (stereo not shown) [Example 153] | 0.54 | – | – | IC50 [1]: 650 nM
4 | CC(C)(C)OC(=O)NCC(=O)N(CC1CCCCC1)CC(Cc1c[nH]c2ccccc12)NC(=O)CN1CCN(c2ccccc2)CC1 (stereo not shown) [Example 154] | 0.21 | – | – | NK-1 percent inhibition of binding ([1]; @ 1 μM): 76% @
5 | CN(CC(Cc1c[nH]c2ccccc12)NC(=O)CN1CCC(N2CCCCC2)CC1)C(=O)c1ccccc1 (stereo not shown) [Example 155] | 12.2 | 63% @ | – | –
6 | CC(=O)NC1(c2ccccc2)CCN(CC(=O)NC(Cc2c[nH]c3ccccc23)CN(C)C(=O)c2ccccc2)CC1 (stereo not shown) [Example 156] | 9.5 | 78% @ | – | –
7 | CN(CC(Cc1c[nH]c2ccccc12)NC(=O)CN1CCN(c2ccccc2)CC1)C(=O)c1ccccc1 (stereo not shown) [Example 157] | 2.9 | 88% @ | – | –
8 | CN(CC(Cc1c[nH]c2ccccc12)NC(=O)CN1CCN(C2CCCCC2)CC1)C(=O)c1ccccc1 (stereo not shown) [Example 158] | 3.8 | – | – | IC50 [1]: 450 nM
9 | COc1ccccc1CN(CC(N)Cc1ccccc1)C(C)=O (stereo not shown) [Example 159] | – | 54% @ | 11 @ % | –
10 | COc1ccccc1CN(CC(N)Cc1cn(C)c2ccccc12)C(C)=O (stereo not shown) [Example 160] | 19 | 0% @ | – | –
11 | COc1ccccc1CN(CC(NC(=O)CBr)c1ccccc1)C(C)=O (stereo not shown) [Example 161] | – | 24% @ | 0% @ | –
12 | COc1ccccc1CN(CC(Cc1ccccc1)NC(=O)CBr)C(C)=O (stereo not shown) [Example 161a] | 17.6 | 77% @ | – | –
13 | COc1ccccc1CN(CC(Cc1cn(C)c2ccccc12)NC(=O)CBr)C(C)=O (stereo not shown) [Example 162] | – | – | 0% @ | IC50 [1]: 375 nM
14 | CC(=O)N(C)CC(Cc1c[nH]c2ccccc12)NC(c1ccccc1)(c1ccccc1)c1ccccc1 (stereo not shown) [Example 164] | 6.2 | 0% @ 5 μM | – | –
15 | CCCCN(CC(Cc1c[nH]c2ccccc12)NC(c1ccccc1)(c1ccccc1)c1ccccc1)C(C)=O (stereo not shown) [Example 165] | 10.5 | 3% @ 5 μM | – | –
16 | CCCCCCN(CC(Cc1c[nH]c2ccccc12)NC(c1ccccc1)(c1ccccc1)c1ccccc1)C(C)=O (stereo not shown) [Example 166] | 10 | 0% @ 5 μM | – | –
17 | CC(=O)N(CC(Cc1c[nH]c2ccccc12)NC(c1ccccc1)(c1ccccc1)c1ccccc1)c1ccccc1 (stereo not shown) [Example 167] | 21 | 0% @ 5 μM | – | –
18 | CC(=O)N(CCc1ccccc1)CC(Cc1c[nH]c2ccccc12)NC(c1ccccc1)(c1ccccc1)c1ccccc1 (stereo not shown) [Example 168] | > 100 | 13% @ | – | –
19 | COc1ccccc1CNCC(Cc1c[nH]c2cc(C)ccc12)NC(c1ccccc1)(c1ccccc1)c1ccccc1 (stereo not shown) [Example 169] | 13.9 | 8% @ 5 μM | – | –
20 | CC(=O)N(Cc1ccccc1Cl)CC(Cc1c[nH]c2ccccc12)NC(c1ccccc1)(c1ccccc1)c1ccccc1 (stereo not shown) [Example 170] | – | – | 2% @ | IC50 [1]: 67 nM
21 | COc1ccccc1CN(CC(Cc1c[nH]c2cc(C)ccc12)NC(c1ccccc1)(c1ccccc1)c1ccccc1)C(C)=O (stereo not shown) [Example 171] | – | 0% @ 5 μM | 6% @ | –
22 | COc1ccccc1CNCC(NC(c1ccccc1)(c1ccccc1)c1ccccc1)c1ccccc1 (stereo not shown) [Example 173] | 2 | – | – | IC50 [1]: 74 nM
23 | COc1ccccc1CNCC(Cc1ccccc1)NC(c1ccccc1)(c1ccccc1)c1ccccc1 (stereo not shown) [Example 174] | 6.4 | 0% @ 5 μM | – | –
24 | COc1ccccc1CN(CC(NC(c1ccccc1)(c1ccccc1)c1ccccc1)c1ccccc1)C(C)=O (stereo not shown) [Example 175] | – | 28% @ | 9% @ | –
25 | COc1ccccc1CN(CC(NC(c1ccccc1)(c1ccccc1)c1ccccc1)c1ccc(Cl)c(Cl)c1)C(C)=O (stereo not shown) [Example 176] | – | 9% @ 5 μM | 0% @ | –
26 | COc1ccccc1CN(CC(Cc1ccccc1)NC(c1ccccc1)(c1ccccc1)c1ccccc1)C(C)=O (stereo not shown) [Example 177] | – | – | 12% @ | NK-1 percent inhibition of binding ([1]; @ 10 μM): 0% @
